Assay results reported in patent publication EP3539977B1, “ENZYMES WITH CHLOROGENIC ACID ESTERASE ACTIVITY AND FERULOYL ESTERASE ACTIVITY” (SternEnzym GmbH & Co. KG, priority 2014, dated 2016).
Values joined by “and” are separate entries in the source; they are usually repeats but may differ in a detail not shown here. Identical values can stand only once. Like-named read-outs stand apart in the source and are kept apart here.

Key:
UmChlE [1] = target: T1, UmChlE (Mycosarcoma maydis, UniProt A0A060S684, P492L); assay: biochemical; assay type: biochemical, Ustilago maydis; details: for Relative esterase activity: 1 h, 37 °C, 50 mM Tris pH 7.5
T1 construct: purification of the chlorogenic acid esterase UmChlE from culture supernatant of U. maydis was accomplished by three complementary separation steps; made in house; host or cells: Ustilago maydis itself (native producer), culture supernatant; Q Sepharose FF, preparative IEF, polyamide column
T1 sequence (A0A060S684 22-585, stated change not applied): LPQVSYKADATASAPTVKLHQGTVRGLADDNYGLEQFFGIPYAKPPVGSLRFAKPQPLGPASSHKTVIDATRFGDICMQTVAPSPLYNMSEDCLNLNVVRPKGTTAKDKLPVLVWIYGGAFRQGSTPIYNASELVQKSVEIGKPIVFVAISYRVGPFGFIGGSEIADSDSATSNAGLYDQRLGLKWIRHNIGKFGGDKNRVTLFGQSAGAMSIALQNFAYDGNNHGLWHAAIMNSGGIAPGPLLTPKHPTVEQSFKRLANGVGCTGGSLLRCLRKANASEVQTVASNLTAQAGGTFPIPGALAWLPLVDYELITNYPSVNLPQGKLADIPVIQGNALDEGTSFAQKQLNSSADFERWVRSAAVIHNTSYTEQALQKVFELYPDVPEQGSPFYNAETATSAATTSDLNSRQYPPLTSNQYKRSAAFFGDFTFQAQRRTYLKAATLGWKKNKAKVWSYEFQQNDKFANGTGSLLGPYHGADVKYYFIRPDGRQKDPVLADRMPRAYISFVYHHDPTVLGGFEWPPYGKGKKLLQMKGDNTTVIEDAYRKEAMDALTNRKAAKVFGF
Experimental: (§1) Chlorogenic acid esterase activity was determined at 37 °C in 50 mM Tris buffer at pH 7.5 using chlorogenic acid and methyl ferulate as standard substrates, unless otherwise stated. The release of the corresponding free acids was analyzed with HPLC-UV. If appropriate, the hydrolysis of other benzoic and cinnamic acid ester derivatives as well as feruloylated saccharides was measured with the same method. After incubation for one hour the reaction was terminated by doubling the reacting volume with acetonitrile. Samples were centrifuged (15 min, 15.000 × g) before injection to the HPLC (Chromolith Performance RP-18e reverse-phase column, 100 × 4.6 mm, Merck, Darmstadt, Germany). […] Substance elution was detected at 232 nm (benzoic and 3-hydroxybenzoic acid), 254 nm (4-hydroxybenzoic and vanillic acid), 275 nm (cinnamic and gallic acid), 306 nm (p-coumaric acid) and 323 nm (ferulic, caffeic, chlorogenic and sinapic acid) using a Shimadzu UV-Vis detector (SPD-10A VP, Shimadzu Deutschland GmbH, Duisburg, Germany). One unit of enzyme activity was defined as the amount of enzyme releasing one µmοl of free acid per minute under the specified conditions. All measurements were performed at least twice.
Enzyme tolerance to different solvents was investigated in the presence of 50 % (v/v) acetone, acetonitrile, diethyl ether, DMF, DMSO, ethanol, isoamyl alcohol, isobutyl alcohol, isopropanol, methanol, n-hexane, n-heptane, tert-butyl methyl ether or toluene, respectively, in 50 mM Tris buffer pH 7.5 containing 0.7 mM substrate. In an additional experiment, 0.84 mM substrate was used. After incubation (60 min, 37 °C, 900 rpm) the mixture was applied for HPLC analysis as described above. […] The effect of high salt concentrations (0.1 - 3 M NaCl) on enzyme activity was investigated, too.
Various metal ions and enzyme inhibitors were examined for their effect on chlorogenic acid esterase activity (Table 2). […] Hg^2+ reacts with thiol groups and can also reduce disulphide bonds (40). […] Table 2 Effect of metal ions, inhibitors and NaCl on UmChIE activity.
Remaining enzyme activity was measured after 1 h incubation with 1mM, or, in a further experiment, 1.95 mM methyl ferulate and different metal ions as well as inhibitors in concentrations listed above (at 37 °C, 50 mM Tris buffer pH 7.5). Numbers in parentheses are the estimates of the standard error. A sample without additive was used for the calculation of relative enzyme activities. ND: activity not detectable.

UmChlE [2] = target: T1, UmChlE; assay type: biochemical, Ustilago maydis; details: 1 mM (or 1.95 mM) substrate, 1 h, 37 °C, 50 mM Tris pH 7.5, ND = activity not detectable; for Relative esterase activity: chlorogenic acid = 100 %, standard error in parentheses
Experimental: as §1
Substrate specificity of the UmChlE was determined towards different cinnamate and benzoate esters as well as natural substrates, such as F-A, F-AX and F-AXG, with activity assays as described above. Three mM stock solutions of all substrates were prepared in water.
Purified UmChlE was incubated with 1 mM, or, in a further experiment, 1.95 mM of different substrates for 1 h (at 37 °C, 50 mM Tris buffer pH 7.5). Relative enzyme activities were calculated based on the most preferred substance of the UmChIE: chlorogenic acid which was set to 100 %. Numbers in parentheses are the estimates of the standard error.

RsChlE = target: T2, RsChlE (Rhizoctonia solani, UniProt A0A1D0BQV8); assay: Substrate specificity of purified RsChlE; assay type: biochemical; details: 1 mM (or 1.95 mM) substrate, 1 h, 30 °C, 50 mM Bis-Tris pH 6.0
T2 sequence (A0A1D0BQV8 39-563): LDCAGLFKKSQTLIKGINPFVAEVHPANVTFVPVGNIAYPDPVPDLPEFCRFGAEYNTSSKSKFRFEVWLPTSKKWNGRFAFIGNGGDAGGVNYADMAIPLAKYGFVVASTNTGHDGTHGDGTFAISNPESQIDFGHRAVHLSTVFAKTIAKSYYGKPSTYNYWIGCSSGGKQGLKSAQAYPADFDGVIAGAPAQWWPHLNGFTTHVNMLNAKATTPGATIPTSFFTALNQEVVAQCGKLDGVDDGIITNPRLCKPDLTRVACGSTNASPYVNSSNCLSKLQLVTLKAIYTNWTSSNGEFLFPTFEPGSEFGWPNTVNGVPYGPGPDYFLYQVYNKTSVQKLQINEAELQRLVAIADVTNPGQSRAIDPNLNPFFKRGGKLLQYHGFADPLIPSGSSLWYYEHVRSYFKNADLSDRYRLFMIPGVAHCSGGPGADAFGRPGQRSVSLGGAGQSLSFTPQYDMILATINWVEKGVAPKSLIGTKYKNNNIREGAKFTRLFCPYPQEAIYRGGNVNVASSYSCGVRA
Experimental: as §1
After purification of the recombinant RsChlE from the culture supernatant of Pichia pastoris with Ni-NTA, the enzyme was biochemically characterized. The experiments were performed like for UmChlE. pH and temperature optimums were analyzed. […] Table 4: Substrate specificity of purified RsChIE.
Purified RsChlE was incubated with 1 mM, or in an alternative experiment, 1.95 mM of different substrates for 1 h (at 30 °C, 50 mM Bis-Tris buffer pH 6.0). […] Numbers in parentheses are the estimates of the standard error.

[3] = 5 mM additive, 1 mM (or 1.95 mM) methyl ferulate, without additive = 100 %, standard error in parentheses, ND = activity not detectable

Structure (SMILES): O=[N+]([O-])[O-].O=[N+]([O-])[O-].[Cu+2] [Cu(NO3)2]
- Relative esterase activity (UmChlE [1]; [3]): 96 (0.53) %

Structure (SMILES): O=S(=O)([O-])[O-].[Mn+2] [MnSO4]
- Relative esterase activity (UmChlE [1]; [3]): 90 (0.09) %
- Relative esterase activity (UmChlE [1]; 5 mM additive, 1 mM (or 1.95 mM) methyl ferulate, without additive = 100 %, standard error in parentheses, ND = activity not detectable, listed as Mn^2+): 90%

Structure (SMILES): [Cl-].[Li+] [LiCI]
- Relative esterase activity (UmChlE [1]; [3]): 106 (1.39) %

Structure (SMILES): O=[N+]([O-])[O-].O=[N+]([O-])[O-].[Sr+2] [SrNO3]
- Relative esterase activity (UmChlE [1]; [3]): 104 (0,18) %

Structure (SMILES): [Cl-].[Cl-].[Mg+2] [MgCl2]
- Relative esterase activity (UmChlE [1]; [3]): 106 (0. 53) %

Structure (SMILES): COc1cc(/C=C/C(=O)OC[C@@H]2OC(O)[C@H](O)[C@H]2O)ccc1O (stereo partly drawn) [F-A, 5-O-trans-feruloyl-L-arabinofuranose]
- Specific esterase activity (UmChlE [2]): 2.0 U mg^-1 and 2.06 U mg^-1
- Specific activity (RsChlE): 4.48 U/mg

Structure (SMILES): CCOC(=O)C=Cc1ccccc1 [ethyl cinnamate]
- Specific activity (RsChlE): 0.91 U/mg

Structure (SMILES): [Cl][Fe]([Cl])[Cl] [FeCl3]
- Relative esterase activity (UmChlE [1]; [3]): 66 (0.65) %

Structure (SMILES): COC(=O)/C=C/c1ccc(O)c(O)c1 [methyl caffeate]
- Specific esterase activity (UmChlE [2]): 0.49 U mg^-1
- Specific activity (RsChlE): 4.61 U/mg

Structure (SMILES): CCCCCCCCCCCCOS(=O)(=O)O [SDS]
- inhibition at 5000 µM (UmChlE [1]; read-out: enzyme activity was inhibited): 41%

Structure (SMILES): O=S(=O)([O-])[O-].[Zn+2] [ZnSO4]
- Relative esterase activity (UmChlE [1]; [3]): 76 (1.26) %
- Relative esterase activity (UmChlE [1]; 5 mM additive, 1 mM (or 1.95 mM) methyl ferulate, without additive = 100 %, standard error in parentheses, ND = activity not detectable, listed as Zn^2+): 50 - 76%

Structure (SMILES): COc1cc(/C=C/C(=O)OC[C@@H]2OC(O)[C@H](O[C@@H]3OC[C@@H](O)[C@H](O)[C@H]3O[C@@H]3O[C@@H](CO)[C@@H](O)[C@@H](O)[C@@H]3O)[C@H]2O)ccc1O (stereo partly drawn) [F-AXG, α-L-galactopyranosyl-(1→2)-β-D-xylopyranosyl-(1→2)-5-O-trans-feruloyl-L-arabinofuranose]
- Specific esterase activity (UmChlE [2]): 0.9 U mg^-1 and 0.92 U mg^-1
- Specific activity (RsChlE): 3.66 U/mg

Structure (SMILES): O=S(=O)([O-])[O-].[Ni+2] [NiSO4]
- Relative esterase activity (UmChlE [1]; [3]): 108 (0.87) %

Structure (SMILES): COC(=O)C=Cc1ccccc1 [methyl cinnamate]
- Specific activity (RsChlE): 2.10 U/mg

Structure (SMILES): [Ca+2].[Cl-].[Cl-] [CaCl2]
- Relative esterase activity (UmChlE [1]; [3]): 103 (2.76) %

Structure (SMILES): COC(=O)/C=C/c1cc(OC)c(O)c(OC)c1 [methyl sinapate]
- Relative esterase activity (UmChlE [2]): no
- Relative esterase activity (UmChlE [2]; listed as MSA): total loss of activity

Structure (SMILES): [Cl-].[Cl-].[Co+2] [CoCl2]
- Relative esterase activity (UmChlE [1]; [3]): 67 (0.11) %
- Relative esterase activity (UmChlE [1]; 5 mM additive, 1 mM (or 1.95 mM) methyl ferulate, without additive = 100 %, standard error in parentheses, ND = activity not detectable, listed as Co^2+): 50 - 76%

Structure (SMILES): CC(=O)[O-].CC(=O)[O-].[Hg+2] [HgAc2]
- Relative esterase activity (UmChlE [1]; [3]): complete loss of enzyme activity

Structure (SMILES): O=S(=O)([O-])[O-].[Fe+2] [FeSO4]
- Relative esterase activity (UmChlE [1]; [3]): 102 (0.50) %

Structure (SMILES): [Cl-].[K+] [KCI]
- Relative esterase activity (UmChlE [1]; [3]): 108 (0.57) %

Structure (SMILES): CCOC(=O)/C=C/c1ccc(O)c(OC)c1 [ethyl ferulate]
- Specific esterase activity (UmChlE [2]): 0.78 U mg^-1
- Specific activity (RsChlE): 3.60 U/mg

Structure (SMILES): [Cl-].[Na+] [NaCl]
- Relative esterase activity (UmChlE [1]; 100 mM additive, methyl ferulate): 105 (0.02) %
- Relative esterase activity (UmChlE [1]; 500 mM additive, methyl ferulate): 121 (0.01) %
- Relative esterase activity (UmChlE [1]; 1000 mM additive, methyl ferulate): 125 (0.02) %
- Relative esterase activity (UmChlE [1]; 2000 mM additive, methyl ferulate): 142 (0.06) %
- Relative esterase activity (UmChlE [1]; 3000 mM (3 M) additive, methyl ferulate): 150% and 150 (0.04) %

Structure (SMILES): O=S(=O)([O-])[O-].O=S(=O)([O-])[O-].O=S(=O)([O-])[O-].[Al+3].[Al+3] [Al2(SO4)3]
- Relative esterase activity (UmChlE [1]; [3]): 53 (0.12) %
- Relative esterase activity (UmChlE [1]; 5 mM additive, 1 mM (or 1.95 mM) methyl ferulate, without additive = 100 %, standard error in parentheses, ND = activity not detectable, listed as Al^3+): 50 - 76%

Structure (SMILES): [Cl-].[Cs+] [CsCl]
- Relative esterase activity (UmChlE [1]; [3]): 105 (1.21) %

Structure (SMILES): O=[N+]([O-])[O-].O=[N+]([O-])[O-].O=[N+]([O-])[O-].[Cr+3] [Cr(NO3)3]
- Relative esterase activity (UmChlE [1]; [3]): 69 (3.54) %
- Relative esterase activity (UmChlE [1]; 5 mM additive, 1 mM (or 1.95 mM) methyl ferulate, without additive = 100 %, standard error in parentheses, ND = activity not detectable, listed as Cr^3+): 50 - 76%
